Measurements from ChEMBL document CHEMBL1909046, “DrugMatrix in vitro pharmacology data”.

Experiments:
[1] = biological target: T1, Cholecystokinin receptor type A (Homo sapiens, UniProt P32238); type: cell membranes, Membrane; conditions: 1321-n1; further: in other assays of this panel Not Active means under 50% inhibition at 10 µM
T1 sequence (P32238 whole entry): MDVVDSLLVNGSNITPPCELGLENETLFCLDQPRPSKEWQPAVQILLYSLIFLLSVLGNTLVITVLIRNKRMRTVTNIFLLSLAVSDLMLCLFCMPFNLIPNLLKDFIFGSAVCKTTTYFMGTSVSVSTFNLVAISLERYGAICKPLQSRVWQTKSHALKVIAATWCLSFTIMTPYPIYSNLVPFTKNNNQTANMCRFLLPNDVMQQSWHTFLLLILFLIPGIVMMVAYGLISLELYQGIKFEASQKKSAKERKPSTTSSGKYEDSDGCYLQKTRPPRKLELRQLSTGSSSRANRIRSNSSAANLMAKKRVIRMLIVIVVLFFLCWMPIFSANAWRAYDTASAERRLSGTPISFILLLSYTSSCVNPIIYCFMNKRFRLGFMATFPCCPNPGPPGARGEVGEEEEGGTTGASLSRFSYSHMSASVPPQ

[2] = biological target: T2, Receptor-type tyrosine-protein phosphatase C (Homo sapiens, UniProt P08575); set-up: species or system Escherichia coli;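 further: inhibition of CD45 enzyme activity measured using DiFMUP as substrate; in other assays of this panel Not Active means under 50% inhibition at 10 µM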
T2 sequence (P08575 whole entry): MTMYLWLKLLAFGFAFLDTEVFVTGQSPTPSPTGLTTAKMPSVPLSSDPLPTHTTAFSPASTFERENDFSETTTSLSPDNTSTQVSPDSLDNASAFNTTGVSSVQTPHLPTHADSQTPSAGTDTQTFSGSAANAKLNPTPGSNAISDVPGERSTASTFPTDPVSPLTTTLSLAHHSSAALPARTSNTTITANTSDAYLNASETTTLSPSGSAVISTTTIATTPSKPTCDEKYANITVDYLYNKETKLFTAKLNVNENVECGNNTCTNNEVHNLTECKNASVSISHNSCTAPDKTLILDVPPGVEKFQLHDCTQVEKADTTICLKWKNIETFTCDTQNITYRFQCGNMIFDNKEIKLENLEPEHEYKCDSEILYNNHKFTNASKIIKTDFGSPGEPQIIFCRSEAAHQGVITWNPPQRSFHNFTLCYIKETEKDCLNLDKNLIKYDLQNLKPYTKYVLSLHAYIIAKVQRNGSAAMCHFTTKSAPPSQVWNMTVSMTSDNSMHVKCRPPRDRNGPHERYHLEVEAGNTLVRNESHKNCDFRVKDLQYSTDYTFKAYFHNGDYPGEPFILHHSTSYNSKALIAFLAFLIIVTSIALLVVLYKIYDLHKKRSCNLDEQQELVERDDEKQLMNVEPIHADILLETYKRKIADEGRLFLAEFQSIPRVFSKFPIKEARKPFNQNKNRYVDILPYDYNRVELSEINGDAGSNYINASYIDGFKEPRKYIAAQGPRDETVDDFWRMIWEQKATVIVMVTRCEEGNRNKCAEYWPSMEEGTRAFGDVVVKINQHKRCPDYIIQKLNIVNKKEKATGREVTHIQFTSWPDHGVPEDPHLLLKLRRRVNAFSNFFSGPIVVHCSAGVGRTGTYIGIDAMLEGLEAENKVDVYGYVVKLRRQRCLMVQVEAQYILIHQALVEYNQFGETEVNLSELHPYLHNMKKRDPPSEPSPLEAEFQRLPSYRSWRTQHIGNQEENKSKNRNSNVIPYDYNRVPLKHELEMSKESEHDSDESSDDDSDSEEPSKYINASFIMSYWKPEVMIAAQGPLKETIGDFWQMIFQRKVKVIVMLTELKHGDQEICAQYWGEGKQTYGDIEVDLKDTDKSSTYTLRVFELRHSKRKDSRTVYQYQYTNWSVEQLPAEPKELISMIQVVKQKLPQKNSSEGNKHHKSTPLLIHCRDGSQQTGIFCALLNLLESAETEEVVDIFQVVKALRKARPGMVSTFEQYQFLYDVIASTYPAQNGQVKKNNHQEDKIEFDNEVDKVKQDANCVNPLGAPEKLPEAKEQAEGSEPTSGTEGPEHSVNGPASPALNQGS

Estrogen receptor beta = Estrogen receptor beta (Homo sapiens, UniProt Q92731); conditions: sf9; further: in other assays of this panel Not Active means under 50% inhibition at 10 µM
Chain of Estrogen receptor beta (Q92731 whole entry): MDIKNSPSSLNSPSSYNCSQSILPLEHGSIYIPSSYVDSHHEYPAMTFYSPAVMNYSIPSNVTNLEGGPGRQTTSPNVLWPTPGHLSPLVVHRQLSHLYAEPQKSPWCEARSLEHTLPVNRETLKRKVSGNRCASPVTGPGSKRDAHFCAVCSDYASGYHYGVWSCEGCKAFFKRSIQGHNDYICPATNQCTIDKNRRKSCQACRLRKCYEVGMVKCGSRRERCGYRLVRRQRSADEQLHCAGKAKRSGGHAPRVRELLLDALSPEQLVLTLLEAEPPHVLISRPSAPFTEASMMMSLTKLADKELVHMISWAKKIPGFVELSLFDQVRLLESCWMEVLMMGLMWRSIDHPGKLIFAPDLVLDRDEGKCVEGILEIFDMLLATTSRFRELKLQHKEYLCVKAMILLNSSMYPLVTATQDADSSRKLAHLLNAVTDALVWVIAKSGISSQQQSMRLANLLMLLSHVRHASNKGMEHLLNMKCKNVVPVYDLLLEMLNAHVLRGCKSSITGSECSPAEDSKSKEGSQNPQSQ

[3] = biological target: Sodium-dependent noradrenaline transporter (Homo sapiens, UniProt P23975); test: DRUGMATRIX: Norepinephrine Transporter radioligand binding (ligand: [125I] RTI-55); type: cell membranes, MDCK, Membrane; conditions: mdck; Not Active = under 50% inhibition at 10 µM
Chain of Sodium-dependent noradrenaline transporter (P23975 whole entry): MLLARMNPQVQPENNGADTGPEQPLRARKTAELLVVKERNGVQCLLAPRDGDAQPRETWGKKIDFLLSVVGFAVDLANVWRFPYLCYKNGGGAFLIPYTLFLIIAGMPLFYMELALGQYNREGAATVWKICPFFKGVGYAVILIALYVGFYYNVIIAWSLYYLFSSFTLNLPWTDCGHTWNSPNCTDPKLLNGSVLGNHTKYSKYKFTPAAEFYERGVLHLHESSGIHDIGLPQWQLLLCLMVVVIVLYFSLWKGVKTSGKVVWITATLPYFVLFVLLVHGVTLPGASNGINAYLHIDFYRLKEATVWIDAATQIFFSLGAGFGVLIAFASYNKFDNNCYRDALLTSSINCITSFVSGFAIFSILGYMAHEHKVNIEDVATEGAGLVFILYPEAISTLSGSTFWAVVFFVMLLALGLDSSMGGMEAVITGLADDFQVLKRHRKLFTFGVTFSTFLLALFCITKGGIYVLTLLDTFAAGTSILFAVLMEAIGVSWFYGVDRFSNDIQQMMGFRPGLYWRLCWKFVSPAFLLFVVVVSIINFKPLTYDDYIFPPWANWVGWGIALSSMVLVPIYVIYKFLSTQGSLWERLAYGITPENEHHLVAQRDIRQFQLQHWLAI

Substance-P receptor = Substance-P receptor (Homo sapiens, UniProt P25103); type: cell membranes, CHO, Membrane; conditions: cho; further: in other assays of this panel Not Active means under 50% inhibition at 10 µM
Chain of Substance-P receptor (P25103 whole entry): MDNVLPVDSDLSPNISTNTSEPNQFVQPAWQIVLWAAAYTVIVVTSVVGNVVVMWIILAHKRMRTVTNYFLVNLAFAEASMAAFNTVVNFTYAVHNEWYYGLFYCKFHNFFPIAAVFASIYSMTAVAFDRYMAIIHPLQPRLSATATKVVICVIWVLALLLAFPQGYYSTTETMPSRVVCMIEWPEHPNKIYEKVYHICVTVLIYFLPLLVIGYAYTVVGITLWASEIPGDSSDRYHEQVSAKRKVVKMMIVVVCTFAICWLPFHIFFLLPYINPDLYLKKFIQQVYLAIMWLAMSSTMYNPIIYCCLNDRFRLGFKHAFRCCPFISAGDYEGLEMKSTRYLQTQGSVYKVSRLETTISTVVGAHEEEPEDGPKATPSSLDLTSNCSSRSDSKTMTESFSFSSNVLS

[4] = DRUGMATRIX: Platelet-Derived Growth Factor (PDGF) radioligand binding (ligand: [125I] PDGF); type: cell-based; conditions: nih3t3; Not Active = under 50% inhibition at 10 µM
[5] = biological target: Tyrosine-protein kinase Lck (Homo sapiens, UniProt P06239); test: DRUGMATRIX: Protein Tyrosine Kinase, LCK enzyme inhibition (substrate: Poly(Glu:Tyr)); type: cell-based, Insect cells; conditions: insect cells, Not Active = under 50% inhibition at 10 µM
Chain of Tyrosine-protein kinase Lck (P06239 whole entry): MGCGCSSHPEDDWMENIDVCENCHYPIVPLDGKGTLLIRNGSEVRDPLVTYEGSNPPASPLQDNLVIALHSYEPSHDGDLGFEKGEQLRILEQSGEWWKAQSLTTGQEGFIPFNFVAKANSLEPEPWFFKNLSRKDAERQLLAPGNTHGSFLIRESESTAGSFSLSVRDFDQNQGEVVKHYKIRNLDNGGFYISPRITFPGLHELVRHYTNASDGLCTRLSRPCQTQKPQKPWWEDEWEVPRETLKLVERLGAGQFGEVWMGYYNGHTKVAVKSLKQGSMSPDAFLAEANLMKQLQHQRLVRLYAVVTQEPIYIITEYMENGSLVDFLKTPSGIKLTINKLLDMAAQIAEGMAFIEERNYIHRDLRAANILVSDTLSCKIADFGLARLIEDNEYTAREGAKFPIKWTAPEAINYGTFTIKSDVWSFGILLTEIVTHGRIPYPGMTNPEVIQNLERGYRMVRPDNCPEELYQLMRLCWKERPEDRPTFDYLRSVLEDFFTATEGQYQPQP

Glucocorticoid receptor = biological target: T3, Glucocorticoid receptor (Homo sapiens, UniProt P04150); conditions: hela s3; further: in other assays of this panel Not Active means under 50% inhibition at 10 µM
T3 sequence (P04150 whole entry): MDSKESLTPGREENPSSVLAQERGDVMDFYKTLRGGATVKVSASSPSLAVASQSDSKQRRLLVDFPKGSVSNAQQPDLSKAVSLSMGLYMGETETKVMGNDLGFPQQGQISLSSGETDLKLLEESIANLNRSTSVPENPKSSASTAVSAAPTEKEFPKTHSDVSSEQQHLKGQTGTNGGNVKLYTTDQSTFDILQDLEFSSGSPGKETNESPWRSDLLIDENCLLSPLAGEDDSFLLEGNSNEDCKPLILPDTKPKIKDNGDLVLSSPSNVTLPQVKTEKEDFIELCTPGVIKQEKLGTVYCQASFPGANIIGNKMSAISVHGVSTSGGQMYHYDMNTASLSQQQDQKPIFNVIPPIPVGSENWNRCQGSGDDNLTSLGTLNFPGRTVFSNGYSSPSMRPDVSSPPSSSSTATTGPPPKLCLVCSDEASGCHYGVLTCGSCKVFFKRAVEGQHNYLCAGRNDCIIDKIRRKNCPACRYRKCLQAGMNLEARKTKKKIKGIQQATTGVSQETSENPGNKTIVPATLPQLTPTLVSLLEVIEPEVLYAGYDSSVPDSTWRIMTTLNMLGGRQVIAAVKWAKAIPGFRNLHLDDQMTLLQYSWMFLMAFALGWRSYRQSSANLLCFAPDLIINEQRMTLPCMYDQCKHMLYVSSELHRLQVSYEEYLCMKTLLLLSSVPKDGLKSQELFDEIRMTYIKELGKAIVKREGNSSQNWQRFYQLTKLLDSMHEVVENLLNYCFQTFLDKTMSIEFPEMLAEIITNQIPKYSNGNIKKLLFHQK

| Compound | IC50 [1] | Ki [1] | IC50 [2] | Ki [2] | IC50 (Estrogen receptor beta) | Ki (Estrogen receptor beta) | IC50 [3] | Ki [3] | IC50 (Substance-P receptor) | Ki (Substance-P receptor) | IC50 [4] | Ki [4] | IC50 ([5]; read-out: IC50) [nM] | IC50 (Glucocorticoid receptor) | Ki (Glucocorticoid receptor) | IC50 [5] | Ki [5] |
| --- | --- | --- | --- | --- | --- | --- | --- | --- | --- | --- | --- | --- | --- | --- | --- | --- | --- |
| GRAMICIDIN | Not Active | Not Active | Not Active | Not Active | Not Active | Not Active | Not Active | Not Active | Not Active | Not Active | Not Active | Not Active | 1090 | Not Active | Not Active | – | – |
| Cc1nnc2n1-c1ccc(Cl)cc1C(c1ccccc1)=NC2 [ALPRAZOLAM] | Not Active | – | Not Active | – | Not Active | – | Not Active | – | Not Active | – | Not Active | Not Active | – | Not Active | – | Not Active | – |
| GENTAMICIN | Not Active | Not Active | Not Active | Not Active | Not Active | Not Active | Not Active | Not Active | Not Active | Not Active | Not Active | Not Active | – | Not Active | Not Active | Not Active | Not Active |
| CC(C)NNC(=O)c1ccncc1 [IPRONIAZID] | Not Active | – | Not Active | – | Not Active | – | Not Active | – | Not Active | – | Not Active | Not Active | – | Not Active | – | Not Active | – |
| NCCCC(O)(P(=O)(O)O)P(=O)(O)O [ALENDRONIC ACID] | Not Active | – | Not Active | – | Not Active | – | Not Active | – | Not Active | – | Not Active | Not Active | – | Not Active | – | Not Active | – |
| Nc1ccc2c3c(cccc13)C(=O)NC2=O | Not Active | – | Not Active | – | Not Active | – | Not Active | – | Not Active | – | Not Active | Not Active | – | Not Active | – | Not Active | – |
| C#C[C@]1(OC(C)=O)CC[C@H]2[C@@H]3CCC4=C[C@@H](OC(C)=O)CC[C@@H]4[C@H]3CC[C@@]21C [ETHYNODIOL DIACETATE] | Not Active | – | Not Active | – | Not Active | – | Not Active | – | Not Active | – | Not Active | Not Active | – | Not Active | – | Not Active | – |
| COc1ccc2c3c1O[C@H]1C[C@@H](O)C=C[C@@]31CCN(C)C2 [GALANTAMINE] | Not Active | – | Not Active | – | Not Active | – | Not Active | – | Not Active | – | Not Active | Not Active | – | Not Active | – | Not Active | – |
| CCCN(CCC)S(=O)(=O)c1ccc(C(=O)O)cc1 [PROBENECID] | Not Active | – | Not Active | – | Not Active | – | Not Active | – | Not Active | – | Not Active | Not Active | – | Not Active | – | Not Active | – |
| C[C@H]1O[C@@H](n2cc(F)c(=O)[nH]c2=O)[C@H](O)[C@@H]1O [DOXIFLURIDINE] | Not Active | – | Not Active | – | Not Active | – | Not Active | – | Not Active | – | Not Active | Not Active | – | Not Active | – | Not Active | – |
| O=c1cnn([C@@H]2O[C@H](CO)[C@@H](O)[C@H]2O)c(=O)[nH]1 [6-AZAURIDINE] | Not Active | – | Not Active | – | Not Active | – | Not Active | – | Not Active | – | Not Active | Not Active | – | Not Active | – | Not Active | – |
| COC(=O)CCc1ccc(OCC(O)CNC(C)C)cc1 (stereo not drawn) [ESMOLOL] | Not Active | – | Not Active | – | Not Active | – | Not Active | – | Not Active | – | Not Active | Not Active | – | Not Active | – | Not Active | – |
| C[C@@H]1O[C@@H](O[C@@H]2C=C3CC[C@@H]4[C@H](CC[C@]5(C)[C@@H](c6ccc(=O)oc6)CC[C@]45O)[C@@]3(C)CC2)[C@H](O)[C@H](O)[C@H]1O [PROSCILLARIDIN] | Not Active | – | Not Active | – | Not Active | – | Not Active | – | Not Active | – | Not Active | Not Active | – | Not Active | – | Not Active | – |
| NYSTATIN | Not Active | Not Active | Not Active | Not Active | Not Active | Not Active | Not Active | Not Active | Not Active | Not Active | Not Active | Not Active | – | Not Active | Not Active | Not Active | Not Active |
| O=C(c1ccccc1C(F)(F)F)N1CCC(Cc2ccccc2)CC1 | Not Active | – | Not Active | – | Not Active | – | Not Active | – | Not Active | – | Not Active | Not Active | – | Not Active | – | Not Active | – |
| Brc1c(NC2=NCCN2)ccc2nccnc12 [BRIMONIDINE] | Not Active | – | Not Active | – | Not Active | – | Not Active | – | Not Active | – | Not Active | Not Active | – | Not Active | – | Not Active | – |
| C[n+]1ccccc1/C=N/O.[Cl-] [PRALIDOXIME CHLORIDE] | Not Active | – | Not Active | – | Not Active | – | Not Active | – | Not Active | – | Not Active | Not Active | – | Not Active | – | Not Active | – |
